“And” between values parts separate entries of the source, which are not always exact repeats. Equal entries are not always repeated.
Target: SARS-CoV-2 Main Protease (SARS-CoV-2) (UniProt P0DTD1)

Row | Compound | IC50
1 | CCNC(=O)CN1CC(C(=O)Nc2cncc3cc(F)ccc23)c2cc(Cl)ccc2C1=O (stereo not drawn) | 0.161 µM
2 | COCCN1CC(C(=O)Nc2cncc3ccccc23)c2cc(Cl)ccc2C1=O (stereo not drawn) | 0.267 µM
3 | COc1cc(CNc2cc(Cl)cc(CC(=O)Nc3cncc4ccccc34)c2)cc(OC)c1 | 2.87 µM
4 | Cc1ccc(Cl)cc1N1CCN(c2cc(Cl)cc(CC(=O)Nc3cncc4ccccc34)c2)CC1 | 3.37 µM
5 | CCC(c1ccncc1)N(C)C(=O)Cc1c[nH]c2ncccc12 (stereo not drawn) | > 99.5 µM
6 | CC(C)(C)c1ccc(N(C(=O)c2ccncc2)C(C(=O)NCCc2cccc(F)c2)c2cccnc2)cc1 (stereo not drawn) | > 99.5 µM
7 | CN(C(=O)Cn1nnc2ccccc21)c1ccc(Oc2ccc(C(F)(F)F)cn2)cc1 | 37.8 µM
8 | CCN(CC)S(=O)(=O)c1ccc(S(=O)(=O)N2CCN(S(N)(=O)=O)CC2)cc1 | > 99.5 µM
9 | NS(=O)(=O)c1cc(CN2CCN(C(c3ccccc3)c3ccccc3)CC2)co1 | > 99.5 µM
10 | CCOC(=O)N1Cc2ccc(Cl)cc2C(C(=O)Nc2cncc3ccccc23)C1 (stereo not drawn) | 0.236 µM
11 | CC(C(=O)OC1CCCN(Cc2cccc(C(F)(F)F)c2)C1=O)n1cnc(C#N)n1 (stereo not drawn) | 8.45 µM and 10.2 µM
12 | O=C(Nc1cncc2ccccc12)C1c2cc(Cl)ccc2CCN1S(=O)(=O)C1CC1 (stereo not drawn) | 1.14 µM
13 | COCCCNC(=O)C(c1cccnc1)N(C(=O)c1cocn1)c1ccc(C(C)(C)C)cc1 (stereo not drawn) | 8.79 µM
14 | O=C(Cc1cccc(Cl)c1)Nc1cncc2cc(C(F)F)ccc12 | 2.25 µM
15 | Cc1nccn1-c1ccc(Nc2cc(Cl)cc(CC(=O)Nc3cncc4ccccc34)c2)cc1 | 2.48 µM
16 | Cc1ccccc1CN(C(=O)c1cocn1)C(C(=O)NCCc1cccc(F)c1)c1cccnc1 (stereo not drawn) | > 99.5 µM
17 | O=C(NCCc1cccc(F)c1)C(c1cccnc1)N(C(=O)c1cnc[nH]1)C1CCCCCC1 (stereo not drawn) | > 99 µM
18 | CC1CC(CCN(C(=O)c2ccco2)C(C(=O)NCCc2cccc(F)c2)c2cccnc2)CC(C)(C)C1 (stereo not drawn) | > 99.5 µM
19 | CC(C)(C)c1ccc(N(C(=O)c2cc(=O)[nH][nH]2)C(C(=O)NCCc2cccc(F)c2)c2cccnc2)cc1 (stereo not drawn) | 39.7 µM
20 | O=C(c1cc(=O)[nH]c2ccccc12)N1CCN(Cc2ccccc2)CC1 | 8.76 µM
21 | CS(=O)(=O)c1ccc2c(NC(=O)C3CN(CC(=O)NCC4CC4)C(=O)c4ccc(Cl)cc43)cncc2c1 (stereo not drawn) | 0.179 µM and 0.174 µM
22 | O=C(Nc1cncc2c1CCCC2)[C@@H]1CNS(=O)(=O)c2ccc(Cl)cc21 (stereo in doubt) | 0.205 µM
23 | N#Cc1cc(Cl)cc(NC(=O)Nc2cccnc2)c1 | > 99 µM
24 | CCOC(=O)/C=C/N1CCN(S(=O)(=O)c2ccccc2)CC1 | 30 µM

Row | Compound | IC50
25 | CNC(=O)C(C)(C)N1CC(C(=O)Nc2cncc3ccccc23)c2cc(Cl)ccc2C1=O (stereo not drawn) | 1.02 µM
26 | CN1CCCN(c2ccc(N(C(=O)c3cocn3)C(C(=O)NCCc3cccc(F)c3)c3cccnc3)cc2)C1=O (stereo not drawn) | 61 µM
27 | CC(=O)N(CC(=O)Nc1ccc(F)c(Cl)c1)c1cccc(C#N)c1 | > 99.5 µM
28 | COc1cccc2ncc(NC(=O)Cc3cccc(Cl)c3)n12 | > 99.5 µM
29 | O=C(NCC(=O)N1CCCC1c1nc2ccccc2[nH]1)C1CCCC1 (stereo not drawn) | > 99.5 µM
30 | O=C(Nc1cncc2cc(CN3CCNCC3)ccc12)C1CCOc2ccc(Cl)cc21 (stereo not drawn) | 1.83 µM
31 | CC(C)(C)c1ccc(N(C(=O)c2ncc[nH]2)C(C(=O)NCCc2cccc(F)c2)c2cccnc2)cc1 (stereo not drawn) | 5.29 µM
32 | CCCCN1C(=O)C(=O)c2cc(Br)cc(C)c21 | > 99.5 µM
33 | O=C(Cc1cc(Cl)cc(Nc2ccc(Br)c([N+](=O)[O-])c2)c1)Nc1cncc2ccccc12 | 2.06 µM
34 | O=C(Cc1cc(Cl)cc(Nc2cccc(Cl)c2Br)c1)Nc1cncc2ccccc12 | 1.94 µM
35 | COCc1csc(-c2nnc(-c3sc(-c4ccccc4)nc3C)o2)c1 | > 99.5 µM
36 | Cc1ccncc1NC(=O)Cc1cc(Cl)cc(OCc2nn(C(=O)OC(C)(C)C)c3ccccc23)c1 | > 99.5 µM
37 | O=C(Cc1cc(Cl)cc(Nc2cc(C(F)(F)F)ccn2)c1)Nc1cncc2ccccc12 | 1.84 µM
38 | CC(C)(C)c1ccc(N(C(=O)c2cocn2)C(C(=O)NCCc2cccc(F)c2)c2cncnc2)cc1 (stereo not drawn) | 2.92 µM
39 | N#Cc1ccc(CN2CCC(C3CCNC3)CC2)cc1 (stereo not drawn) | 2.06 µM
40 | CCS(=O)(=O)c1ccc(CNS(=O)(=O)c2cnc(-c3ccccc3)s2)s1 | > 99.5 µM
41 | O=S(=O)(c1cc2c(cc1OCc1ccccc1)OCO2)N1CCOCC1 | > 99.5 µM
42 | O=C(Cc1cccc(Cl)c1)Nc1cncc2cnoc12 | 23.9 µM
43 | CCN(CC)CCOc1ccc2cncc(N3CCC4(CN(S(=O)(=O)CC5(C#N)CC5)Cc5ccc(Cl)cc54)C3=O)c2c1 (stereo not drawn) | 0.183 µM
44 | O=C(Cc1cccc(Cl)c1)Nc1cccc2cn[nH]c12 | > 99.5 µM
45 | Cc1cc(O)ncc1NC(=O)C1CCOc2ccc(Cl)cc21 (stereo not drawn) | > 99.5 µM
46 | O=C(Cc1cc(Cl)cc(Nc2ccc(C(F)(F)F)cc2[N+](=O)[O-])c1)Nc1cncc2ccccc12 | 2.24 µM
47 | O=C(Cc1cc(Cl)cc(N[C@H]2C(O)O[C@H](CO)[C@@H](O)[C@@H]2O)c1)Nc1cncc2ccccc12 (stereo in doubt) | 2.92 µM
48 | CSc1ccc(CN(C(=O)c2ccco2)C(C(=O)NCCc2cccc(F)c2)c2cccnc2)cc1C#N (stereo not drawn) | 54.9 µM

— the COVID Moonshot data (paper PMC7615835)
